# Measurements taken from patent US6380218B1, “Nicotinamide derivatives” (Pfizer Inc, priority 1997, dated 2002).
row,SMILES,melting point
1,"Cc1ccc(CNC(=O)c2cccnc2Oc2cccnc2)cc1 [Example 13, N-(4-Methyl-benzyl)-2-(pyridin-3-yloxy)-nicotinamide]",91 to 93 °C
2,"CC(NC(=O)c1cccnc1Oc1cccnc1)c1ccc(Cl)s1 (stereo not shown) [Example 14, N-[1-(5-Chloro-thiophen-2-yl)-ethyl]-2-(pyridin-3-yloxy)-nicotinamide]",74 to 76 °C
3,"O=C(NCc1ccco1)c1cccnc1Oc1cccnc1 [Example 15, N-Furan-2-ylmethyl-2-(pyridin-3-yloxy)-nicotinamide]",84 to 86 °C
4,"O=C(NCc1ccc(Cl)s1)c1cccnc1Oc1cccnc1 [Example 16, N-(5-Chloro-thiophen-2-ylmethyl)-2-(pyridin-3-yloxy)-nicotinamide]",110 to 112 °C
5,"Cc1ccc(C(C)NC(=O)c2cccnc2Oc2cccnc2)s1 (stereo not shown) [Example 17, N-[1-(5-Methyl-thiophen-2-yl)-ethyl]-2-(pyridin-3-yloxy)-nicotinamide]",162 to 164 °C
6,"Cc1ccc(CNC(=O)c2cccnc2Oc2cccnc2)s1 [Example 18, N-(5-Methyl-thiophen-2-ylmethyl)-2-(pyridin-3-yloxy)-nicotinamide]",111 to 113 °C
7,"Cc1ccc(CNC(=O)c2cccnc2Oc2cccnc2)o1 [Example 19, N-(5-Methyl-furan-2-ylmethyl)-2-(pyridin-3-yloxy)-nicotinamide]",65 to 67 °C
8,"Cc1ccsc1CNC(=O)c1cccnc1Oc1cccnc1 [Example 20, N-(3-Methyl-thiophen-2-ylmethyl)-2-(pyridin-3-yloxy)-nicotinamide]",89 to 91 °C
9,"O=C(NCc1cc(Cl)cs1)c1cccnc1Oc1cccnc1 [Example 21, N-(4-Chloro-thiophen-2-ylmethyl)-2-(pyridin-3-yloxy)-nicotinamide]",118 to 120 °C
10,"O=C(NCc1cc2ccccc2s1)c1cccnc1Oc1cccnc1 [Example 22, N-Benzo[b]thiophen-2-ylmethyl-2-(pyridin-3-yloxy)-nicotinamide]",93 to 95 °C
11,"O=C(NCc1ccc(Cl)o1)c1cccnc1Oc1cccnc1 [Example 23, N-(5-Chloro-furan-2-ylmethyl)-2-(pyridin-3-yloxy)-nicotinamide]",80 to 82 °C
12,"O=C(NCc1nccs1)c1cccnc1Oc1cccnc1 [Example 24, 2-(Pyridin-3-yloxy)-N-thiazol-2-ylmethyl-nicotinamide]",94 to 96 °C
13,"O=C(NCc1ccc(OCC(F)(F)F)cc1)c1cccnc1Oc1cccnc1 [Example 25, 2-(Pyridin-3-yloxy)-N-[4-(2,2,2-trifluoro-ethoxy)-benzyl]-nicotinamide]",98 to 100 °C
14,"O=C(NCc1ccccc1F)c1cccnc1Oc1cccnc1 [Example 26, N-(2-Fluoro-benzyl)-2-(pyridin-3-yloxy)-nicotinamide]",90 to 92 °C
15,"O=C(NCc1ccc(OC(F)F)cc1)c1cccnc1Oc1cccnc1 [Example 27, N-(4-Difluoromethoxy-benzyl)-2-(pyridin-3-yloxy)-nicotinamide]",91 to 93 °C
16,"O=C(NCc1ccc(F)cc1)c1cccnc1Oc1cccnc1 [Example 28, N-(4-Fluoro-benzyl]-2-(pyridin-3-yloxy)-nicotinamide]",129 to 131 °C
17,"COc1ccc(CNC(=O)c2cccnc2Oc2cccnc2)cc1 [Example 29, N-(4-Methoxy-benzyl)-2-(pyridin-3-yloxy)-nicotinamide]",62 to 64 °C

row,SMILES,melting point
1,"O=C(NCc1ccc(C(F)(F)F)s1)c1cccnc1Oc1cccnc1 [Example 30, 2-(Pyridin-3-yloxy)-N-(5-trifluoromethyl-thiophen-2-ylmethyl)-nicotinamide]",122 to 124 °C
2,"O=C(NCc1ccc(F)s1)c1cccnc1Oc1cccnc1 [Example 32, N-(5-Fluoro-thiophen-2-ylmethyl)-2-(pyridin-3-yloxy)-nicotinamide]",99 to 101 °C
3,"O=C1Cc2cc(CNC(=O)c3cccnc3Oc3cccnc3)ccc2N1 [Example 33, N-(2-Oxo-2,3-dihydro-1H-indol-5-ylmethyl)-2-(pyridin-3-yloxy)-nicotinamide]",109 to 111 °C
4,"CC(C)(C)c1cc(CNC(=O)c2cccnc2Oc2cccnc2)cc(C(C)(C)C)c1O [Example 34, N-(3,5-Di-tert-butyl-4-hydroxy-benzyl)-2-(pyridin-3-yloxy)-nicotinamide]",42 to 44 °C
5,"CC(C)(O)c1ccc(CNC(=O)c2cccnc2Oc2cccnc2)cc1 [Example 36, N-[4-(1-Hydroxy-1-methyl-ethyl)-benzyl]-2-(pyridin-3-yloxy)-nicotinamide]",79 to 81 °C
6,"COC(=O)c1ccc(CNC(=O)c2cccnc2Oc2cccnc2)cc1 [Example 37, 4-({[2-(Pyridin-3-yloxy)-pyridine-3-carbonyl]-amino}-methyl)-benzoicacid methyl ester]",125 to 127 °C
7,"CC(C)(O)c1ccc(CNC(=O)c2cccnc2Oc2cccnc2)cc1Cl [Example 38, N-[3-Chloro-4-(1-hydroxy-1-methyl-ethyl)-benzyl]-2-(pyridin-3-yloxy)-nicotinamide]",139 to 141 °C
8,"O=C(NCc1ccc2c(c1)OCCC2O)c1cccnc1Oc1cccnc1 (stereo not shown) [Example 41, N-(4-Hydroxy-chroman-7-ylmethyl)-2-(pyridin-3-yloxy)-nicotinamide]",134 to 136 °C
9,"O=C(NCc1ccc(C2(O)CCC2)cc1)c1cccnc1Oc1cccnc1 [Example 42, N-[4-(1-Hydroxy-cyclobutyl)-benzyl]-2-(pyridin-3-yloxy)-nicotinamide]",116 to 118 °C
10,"CC(C)(O)c1cc(Cl)c(CNC(=O)c2cccnc2Oc2cccnc2)s1 [Example 44, N-[3-Chloro-5-(1-hydroxy-1-methyl-ethyl)-thiophen-2-ylmethyl]-2-(pyridin-3-yloxy)-nicotinamide]",74 to 76 °C
11,"CC(NC(=O)c1cccnc1Oc1cccnc1)c1cccs1 (stereo not shown) [Example 45, 2-(Pyridin-3-yloxy)-N-(1-thiophen-2yl-ethyl)-nicotinamide]",90 to 92 °C
12,"Cc1ccc(CNC(=O)c2cccnc2Oc2cncc(Cl)c2)cc1 [Example 48, 2-(5-Chloro-pyridin-3-yloxy)-N-(4-methyl-benzyl)-nicotinamide]",119 to 121 °C
13,"CC(NC(=O)c1cccnc1Oc1cncc(Cl)c1)c1ccc(Cl)s1 (stereo not shown) [Example 49, 2-(5-Chloro-pyridin-3-yloxy)-N-[1-(5-chloro-thiophen-2-yl)-ethyl]-nicotinamide]",110 to 112 °C
14,"Cc1ccc(C(C)NC(=O)c2cccnc2Oc2cncc(Cl)c2)s1 (stereo not shown) [Example 50, 2-(5-Chloro-pyridin-3-yloxy)-N-[1-(5-methyl-thiophen-2-yl)-ethyl]-nicotinamide]",75 to 77 °C
15,"O=C(NCc1ccc(Cl)s1)c1cccnc1Oc1cncc(Cl)c1 [Example 51, 2-(5-Chloro-pyridin-3-yloxy)-N-(5-chloro-thiophen-2-ylmethyl)-nicotinamide]",125 to 127 °C
16,"Cc1ccc(CNC(=O)c2cccnc2Oc2cncc(Cl)c2)s1 [Example 52, 2-(5-Chloro-pyridin-3-yloxy)-N-(5-methyl-thiophen-2-ylmethyl)-nicotinamide]",81 to 83 °C
17,"Cc1ccc(CNC(=O)c2cccnc2Oc2cncc(Cl)c2)o1 [Example 53, 2-(5-Chloro-pyridin-3-yloxy)-N-(5-methyl-furan-2-ylmethyl)-nicotinamide]",103 to 105 °C
